What was measured:
Format in all cases: in vivo
Diabrotica balteata = Diabrotica balteata (Corn Root Worm); conditions: 96 h, application rate of 200 ppm, sprayed maize sprouts, L2 larvae, 4 days after infestation, read-out: effect in at least one of the two categories (mortality or growth inhibition)
Description: Maize sprouts placed onto an agar layer in 24-well microtiter plates were treated with aqueous test solutions prepared from 10,000 ppm DMSO stock solutions by spraying. After drying, the plates were infested with L2 larvae (6 to 10 per well). The samples were assessed for mortality and growth inhibition in comparison to untreated samples 4 days after infestation.

Plutella xylostella = Plutella xylostella (Diamond Back Moth); conditions: 120 h, application rate of 200 ppm, artificial diet, L2 larvae, 5 days after infestation, read-out: effect in at least one of the two categories (mortality or growth inhibition)
Description: 24-well microtiter plates with artificial diet were treated with aqueous test solutions prepared from 10,000 ppm DMSO stock solutions by pipetting. After drying, the plates were infested with L2 larvae (10 to 15 per well). The samples were assessed for mortality and growth inhibition in comparison to untreated samples 5 days after infestation.

Spodoptera littoralis [1] = assay: Spodoptera littoralis (Egyptian Cotton Leaf Worm), sprayed cotton leaf discs; conditions: foliar, 72 h, application rate of 200 ppm, L1 larvae, 3 days after infestation
In short: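 Cotton leaf discs on agar sprayed with aqueous dilutions of 10,000 ppm DMSO stocks, dried, then infested with five L1 larvae. Mortality, anti-feeding and growth inhibition scored against untreated discs 3 days after infestation. Control recorded when any one category exceeds the untreated sample.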

Euschistus heros = Euschistus heros (Neotropical Brown Stink Bug); conditions: 120 h, application rate of 200 ppm, sprayed soybean leaves, N2 nymphs, 5 days after infestation, read-out: effect in at least one of the two categories (mortality or growth inhibition)
Description: Soybean leaves on agar in 24-well microtiter plates were sprayed with aqueous test solutions prepared from 10,000 ppm DMSO stock solutions. After drying the leaves were infested with N2 nymphs. The samples were assessed for mortality and growth inhibition in comparison to untreated samples 5 days after infestation.

[2] = tested on: Frankliniella occidentalis; assay: Frankliniella occidentalis (Western Flower Thrips): Feeding/Contact Activity; conditions: foliar, 168 h, application rate of 200 ppm, sprayed sunflower leaf discs, population of mixed ages, 7 days after infestation
Description: Sunflower leaf discs were placed on agar in 24-well microtiter plates and sprayed with aqueous test solutions prepared from 10,000 DMSO stock solutions. After drying the leaf discs were infested with a Frankliniella population of mixed ages. The samples were assessed for mortality 7 days after infestation.

Myzus persicae [3] = assay: Myzus persicae (Green Peach Aphid): Feeding/Contact Activity; conditions: foliar, 144 h, application rate of 200 ppm, sprayed sunflower leaf discs, aphid population of mixed ages, 6 days after infestation
Description: Sunflower leaf discs were placed onto agar in a 24-well microtiter plate and sprayed with aqueous test solutions prepared from 10,000 ppm DMSO stock solutions. After drying, the leaf discs were infested with an aphid population of mixed ages. The samples were assessed for mortality 6 days after infestation.

Aedes aegypti = assay: Aedes Aegypti (Yellow Fever Mosquito); conditions: 200 ppm in ethanol, dry deposit in 12 well plates, adult females, after 48 h and/or 24 h
Description: Test solutions, at an application rate of 200 ppm in ethanol, were applied to 12 well tissue culture plates. Once the deposits were dry, five, two to five day old adult female Aedes aegypti were added to each well, and sustained with a 10% sucrose solution in a cotton wool plug. Assessment of knockdown was made one hour after introduction, and mortality was assessed at 24 and 48 hours after introduction.

Spodoptera littoralis [4] = assay: Spodoptera littoralis (Egyptian Cotton Leaf Worm), uptake by lettuce roots from agar; conditions: 144 h, test rate of 12.5 ppm, mixed with agar, absorbed by lettuce roots, Spodoptera eggs, 6 days after infestation, read-out: effect in at least one of the three categories (mortality, anti-feeding, or growth inhibition)
From the text: Test compounds were applied by pipette from 10,000 ppm DMSO stock solutions into 24-well plates and mixed with agar. Lettuce seeds were placed onto the agar and the multi well plate was closed by another plate which contained also agar. After 7 days the compound was absorbed by the roots and the lettuce grew into the lid plate. The lettuce leaves were then cut off into the lid plate. Spodoptera eggs were pipetted through a plastic stencil onto a humid gel blotting paper and the lid plate was closed with it. The samples were assessed for mortality, anti-feedant effect and growth inhibition in comparison to untreated samples 6 days after infestation.

Myzus persicae [5] = assay: Myzus persicae (Green Peach Aphid). Systemic Activity; conditions: 144 h, test rate of 24 ppm, roots of infested pea seedlings in test solution, 6 days
Description: Roots of pea seedlings infested with an aphid population of mixed ages were placed directly into aqueous test solutions prepared from 10,000 DMSO stock solutions. The samples were assessed for mortality 6 days after placing seedlings into test solutions.

Bemisia tabaci = Bemisia tabaci (Cotton White Fly): Feeding/Contact Activity; conditions: foliar, 144 h, application rate of 200 ppm, sprayed cotton leaf discs, adult white flies, 6 days after incubation
Description: Cotton leaf discs were placed on agar in 24-well microtiter plates and sprayed with aqueous test solutions prepared from 10,000 ppm DMSO stock solutions. After drying the leaf discs were infested with adult white flies. The samples were checked for mortality 6 days after incubation.

Tetranychus urticae = Tetranychus urticae (Two-Spotted Spider Mite): Feeding/Contact Activity; conditions: foliar, 192 h, application rate of 200 ppm, sprayed bean leaf discs, mixed population (mobile stages), 8 days after infestation
Description: Bean leaf discs on agar in 24-well microtiter plates were sprayed with aqueous test solutions prepared from 10,000 ppm DMSO stock solutions. After drying the leaf discs were infested with a mite population of mixed ages. The samples were assessed for mortality on mixed population (mobile stages) 8 days after infestation.

CCn1c(C(F)(F)F)cc2nc(-c3ncc(N(C)C4CC4)cc3S(=O)(=O)CC)n(C)c2c1=O [Compound A11, 2-[5-[cyclopropyl(methyl)amino]-3-ethylsulfonyl-2-pyridyl]-5-ethyl-3-methyl-6-(trifluoromethyl)imidazo[4,5-c]pyridin-4-one]
≥ 80%: effect mortality or growth inhibition at 200 ppm (Diabrotica balteata) | percent effect (mortality or growth inhibition) at 200 ppm (Plutella xylostella) | percent control (mortality, anti-feeding effect or growth inhibition) at 200 ppm (Spodoptera littoralis [1]) | percent effect (mortality or growth inhibition) at 200 ppm (Euschistus heros) | mortality at 200 ppm [2] | mortality at 200 ppm (Myzus persicae [3]) | pest or weed control at 200 ppm (Aedes aegypti) | percent effect (mortality, anti-feeding or growth inhibition) at 12.5 ppm (Spodoptera littoralis [4])

CCS(=O)(=O)c1cc(C#N)c(N)nc1-c1nc2cc(C(F)(F)F)n(C3CC3)c(=O)c2n1C [Compound A50, 2-(6-amino-5-cyano-3-ethylsulfonyl-2-pyridyl)-5-cyclopropyl-3-methyl-6-(trifluoromethyl)imidazo[4,5-c]pyridin-4-one]
≥ 80%: effect mortality or growth inhibition at 200 ppm (Diabrotica balteata) | mortality at 24 ppm (Myzus persicae [5]) | percent effect (mortality or growth inhibition) at 200 ppm (Plutella xylostella) | percent control (mortality, anti-feeding effect or growth inhibition) at 200 ppm (Spodoptera littoralis [1]) | percent effect (mortality or growth inhibition) at 200 ppm (Euschistus heros) | mortality at 200 ppm [2] | mortality at 200 ppm (Myzus persicae [3]) | percent effect (mortality, anti-feeding or growth inhibition) at 12.5 ppm (Spodoptera littoralis [4])

CCn1c(C(F)(F)F)cc2nc(-c3nc(N)c(Cl)cc3S(=O)(=O)CC)n(C)c2c1=O [Compound A38, 2-(6-amino-5-chloro-3-ethylsulfonyl-2-pyridyl)-5-ethyl-3-methyl-6-(trifluoromethyl)imidazo[4,5-c]pyridin-4-one]
≥ 80%: effect mortality or growth inhibition at 200 ppm (Diabrotica balteata) | percent effect (mortality or growth inhibition) at 200 ppm (Plutella xylostella) | percent control (mortality, anti-feeding effect or growth inhibition) at 200 ppm (Spodoptera littoralis [1]) | percent effect (mortality or growth inhibition) at 200 ppm (Euschistus heros) | mortality at 200 ppm (Myzus persicae [3]) | pest or weed control at 200 ppm (Aedes aegypti) | percent effect (mortality, anti-feeding or growth inhibition) at 12.5 ppm (Spodoptera littoralis [4]) | mortality at 200 ppm (Bemisia tabaci)

CCn1c(C(F)(F)F)cc2nc(-c3nc(NC4CC4)ccc3S(=O)(=O)CC)n(C)c2c1=O [Compound A30, 2-[6-(cyclopropylamino)-3-ethylsulfonyl-2-pyridyl]-5-ethyl-3-methyl-6-(trifluoromethyl)imidazo[4,5-c]pyridin-4-one]
≥ 80%: effect mortality or growth inhibition at 200 ppm (Diabrotica balteata) | mortality at 24 ppm (Myzus persicae [5]) | percent effect (mortality or growth inhibition) at 200 ppm (Plutella xylostella) | percent control (mortality, anti-feeding effect or growth inhibition) at 200 ppm (Spodoptera littoralis [1]) | percent effect (mortality or growth inhibition) at 200 ppm (Euschistus heros) | mortality at 200 ppm (Tetranychus urticae) | mortality at 200 ppm (Myzus persicae [3]) | pest or weed control at 200 ppm (Aedes aegypti) | mortality at 200 ppm (Bemisia tabaci)

CCn1c(C(F)(F)F)cc2nc(-c3nc(N)ccc3S(=O)(=O)CC)n(C)c2c1=O [Compound A6, 2-(6-amino-3-ethylsulfonyl-2-pyridyl)-5-ethyl-3-methyl-6-(trifluoromethyl)imidazo[4,5-c]pyridin-4-one]
≥ 80%: effect mortality or growth inhibition at 200 ppm (Diabrotica balteata) | mortality at 24 ppm (Myzus persicae [5]) | percent effect (mortality or growth inhibition) at 200 ppm (Plutella xylostella) | percent control (mortality, anti-feeding effect or growth inhibition) at 200 ppm (Spodoptera littoralis [1]) | percent effect (mortality or growth inhibition) at 200 ppm (Euschistus heros) | mortality at 200 ppm (Myzus persicae [3]) | pest or weed control at 200 ppm (Aedes aegypti) | percent effect (mortality, anti-feeding or growth inhibition) at 12.5 ppm (Spodoptera littoralis [4]) | mortality at 200 ppm (Bemisia tabaci)

CCn1c(C(F)(F)F)cc2nc(-c3nc(N(C)C(=O)C4CC4)ccc3S(=O)(=O)CC)n(C)c2c1=O [Compound A10, N-[6-[5-ethyl-3-methyl-4-oxo-6-(trifluoromethyl)imidazo[4,5-c]pyridin-2-yl]-5-ethylsulfonyl-2-pyridyl]-N-methyl-cyclopropanecarboxamide]
≥ 80%: effect mortality or growth inhibition at 200 ppm (Diabrotica balteata) | mortality at 24 ppm (Myzus persicae [5]) | percent effect (mortality or growth inhibition) at 200 ppm (Plutella xylostella) | percent control (mortality, anti-feeding effect or growth inhibition) at 200 ppm (Spodoptera littoralis [1]) | percent effect (mortality or growth inhibition) at 200 ppm (Euschistus heros) | mortality at 200 ppm [2] | mortality at 200 ppm (Myzus persicae [3]) | percent effect (mortality, anti-feeding or growth inhibition) at 12.5 ppm (Spodoptera littoralis [4]) | mortality at 200 ppm (Bemisia tabaci)

CCS(=O)(=O)c1cc(C2CC2)c(N)nc1-c1nc2cc(C(F)(F)F)n(C3CC3)c(=O)c2n1C [Compound A48, 2-(6-amino-5-cyclopropyl-3-ethylsulfonyl-2-pyridyl)-5-cyclopropyl-3-methyl-6-(trifluoromethyl)imidazo[4,5-c]pyridin-4-one]
≥ 80%: effect mortality or growth inhibition at 200 ppm (Diabrotica balteata) | mortality at 24 ppm (Myzus persicae [5]) | percent effect (mortality or growth inhibition) at 200 ppm (Plutella xylostella) | percent control (mortality, anti-feeding effect or growth inhibition) at 200 ppm (Spodoptera littoralis [1]) | percent effect (mortality or growth inhibition) at 200 ppm (Euschistus heros) | mortality at 200 ppm [2] | mortality at 200 ppm (Tetranychus urticae) | mortality at 200 ppm (Myzus persicae [3]) | mortality at 200 ppm (Bemisia tabaci)

CCS(=O)(=O)c1ccc(NC2CC2)nc1-c1nc2cc(C(F)(F)F)n(C)c(=O)c2n1C [Compound A2, 2-[6-(cyclopropylamino)-3-ethylsulfonyl-2-pyridyl]-3,5-dimethyl-6-(trifluoromethyl)imidazo[4,5-c]pyridin-4-one]
≥ 80%: effect mortality or growth inhibition at 200 ppm (Diabrotica balteata) | mortality at 24 ppm (Myzus persicae [5]) | percent effect (mortality or growth inhibition) at 200 ppm (Plutella xylostella) | percent control (mortality, anti-feeding effect or growth inhibition) at 200 ppm (Spodoptera littoralis [1]) | percent effect (mortality or growth inhibition) at 200 ppm (Euschistus heros) | mortality at 200 ppm (Tetranychus urticae) | mortality at 200 ppm (Myzus persicae [3]) | pest or weed control at 200 ppm (Aedes aegypti) | percent effect (mortality, anti-feeding or growth inhibition) at 12.5 ppm (Spodoptera littoralis [4])

CCS(=O)(=O)c1cc(Cl)c(N)nc1-c1nc2cc(C(F)(F)F)n(C3CC3)c(=O)c2n1C [Compound A43, 2-(6-amino-5-chloro-3-ethylsulfonyl-2-pyridyl)-5-cyclopropyl-3-methyl-6-(trifluoromethyl)imidazo[4,5-c]pyridin-4-one]
≥ 80%: effect mortality or growth inhibition at 200 ppm (Diabrotica balteata) | mortality at 24 ppm (Myzus persicae [5]) | percent effect (mortality or growth inhibition) at 200 ppm (Plutella xylostella) | percent control (mortality, anti-feeding effect or growth inhibition) at 200 ppm (Spodoptera littoralis [1]) | percent effect (mortality or growth inhibition) at 200 ppm (Euschistus heros) | mortality at 200 ppm [2] | mortality at 200 ppm (Myzus persicae [3]) | percent effect (mortality, anti-feeding or growth inhibition) at 12.5 ppm (Spodoptera littoralis [4]) | mortality at 200 ppm (Bemisia tabaci)

CCn1c(C(F)(F)F)cc2nc(-c3nc(NC(=O)C4CC4)ccc3S(=O)(=O)CC)n(C)c2c1=O [Compound A8, N-[6-[5-ethyl-3-methyl-4-oxo-6-(trifluoromethyl)imidazo[4,5-c]pyridin-2-yl]-5-ethylsulfonyl-2-pyridyl]cyclopropanecarboxamide]
≥ 80%: effect mortality or growth inhibition at 200 ppm (Diabrotica balteata) | percent effect (mortality or growth inhibition) at 200 ppm (Plutella xylostella) | percent control (mortality, anti-feeding effect or growth inhibition) at 200 ppm (Spodoptera littoralis [1]) | percent effect (mortality or growth inhibition) at 200 ppm (Euschistus heros) | mortality at 200 ppm [2] | mortality at 200 ppm (Myzus persicae [3]) | percent effect (mortality, anti-feeding or growth inhibition) at 12.5 ppm (Spodoptera littoralis [4]) | mortality at 200 ppm (Bemisia tabaci)

Reference: patent US10730872B2, “Pesticidally active heterocyclic derivatives with sulphur containing sustitutents” (SYNGENTA PARTICIPATIONS AG, priority 2015, dated 2020)
